US20120035187A1 (priority 2009, published 2012)
Read-outs that look alike come from different tables or passages of the source. Marks after values point to notes of the source that are not given here.

Legend:
[1] = system: PC12-HS cells; type: cell-based, rat
[2] = system: PC12-HS cells; experiment: Apoptosis induced by amyloid β fragment, Hoechst 33258 staining; type: cell-based, rat; settings: 50 μM amyloid β fragment, NK-4 200 ng/ml
Experimental: A plurality of peptide fragments (called “AMYLOID β FRAGMENT” commercialized by AnaSpec, Inc., CA, USA, each peptide having the amino acid sequence of SEQ ID NO:1), which have an amino acid sequence positioning from 25th to 35th from the N-terminus of amyloid R peptide with human origin and have been recognized as a main factor of neurocyte death in Alzheimer's disease, were diluted with phosphate buffered saline (PBS) to give a concentration of 2 mM, and used after being aged at 37° C. for six hours to coagulate them to increase their cytotoxicity before use. […] Viability (%) of cells in each well was determined and shown in Table 1 by calculating a relative value when the fluorescent intensity of the control was regarded as 100%. […] Thereafter, the cells were stained with […] Hoechst 33258 dye commercialized by SIGMA Corporation, Tokyo, Japan, for five min, observed at a magnitude corresponding to a visual filed containing about 100 cells under a phase contrast microscope and a fluorescent microscope, and counted. The occupied percentage (%) of cells with apoptosis against the total cells in one visual field was calculated and the data was also shown in Table 1. […]

[3] = system: hamsters with cerebellar ataxia; experiment: Histological evaluation of cerebellum of hamsters with cerebellar ataxia; type: in vivo, hamster; settings: 10-weeks of age; for Cerebellar volume (mm^3) / Number of Purkinje cells (cells) / Number of granular cells (cells/20000 μm^2): cerebellar ataxia hamsters; for Number of subject (head) with apparent demyelination in cerebellar white matter: five heads per group
Excerpt: (§1) Since NK-4 was confirmed to have a neurodegenerative inhibitory action in Experiment 1, hamsters with cerebellar ataxia (cerebellar ataxia is called “cerebellar A” and hamsters with cerebellar ataxia are called “hamsters with cerebellar A”, hereinafter) as a suitable model for human neurodegenerative diseases (e.g., spinal cerebellar degeneration) were subjected to examine the influence of NK-4 administration on their behaviors and brain tissues. Twenty-five hamsters with natural mutation (Nna1 inhibition), which are known to lose Purkinje's cells after three-weeks of age and then induce a spontaneous onset of kinetic motor ataxia after seven-weeks of age (see Akita K. et al., “J. Neurogenetics”, Vol. 21, pp. 19-29, 2007), had been fed at Hayashibara Biochemical Laboratories., Inc., Okayama, Japan, were randomly allocated to the test groups 1 to 5, five heads in each group, as shown in Table 2. Prior to the onset of cerebellar A (at three-weeks of age), PBS was started to administer to the hamsters in the test group 1 at a dose of 10 ml/kg/day. Prior to the onset of cerebellar A (at three-weeks of age), NK-4 was started to be administered to the hamsters in the test groups 2 to 4 at a daily dose of 20 μg/kg, 100 μg/kg or 500 μg/kg. “IGF-1, human, a product name of insulin-like growth factor, commercialized by Assaypro LLC, MO, USA. These administered ingredients were intraperitoneally administered daily to hamsters once a day up to 10-weeks of age. The degree of symptom of cerebellar A and the improvement effect on the symptom by NK-4 were evaluated with an index of improvement in motor coordination of hamsters by conducting once a week the later described rotarod test and the slant tolerance test. At the age of 10-weeks, the hamsters were subjected to counting the falling down frequency and extracted their brains, which were then histologically evaluated. In parallel, the concentration of glutamic acid in the bloods and cerebrospinal fluids (CSF) of the hamsters was assayed. As a test group 6, five normal hamsters, with the same age as the hamsters with cerebellar A used in the test groups 1 to 5, were provided and tested similarly as the hamsters with cerebellar A in such a manner of intraperitoneally administering PBS to them at a dose of 10 ml/kg/day once a day up to 10-weeks of age.
Hamsters, 10-weeks of age, after completion of test on coordinated movement such as a confirmation of falling down frequency were intraperitoneally received 50 mg/kg pentobarbital, bled from their postcavas to let them die, and extracted their cerebra and cerebella, followed by fixing them with a 10% by volume of formalin solution. The resulting cerebra and cerebella were photographed with a digital camera apart from a prescribed high position and measured diameters in sagittal and horizontal directions for each photograph. The volumes of cerebra and cerebella were respectively determined by calculating with the formula, (length of sagittal direction)^2×(length of horizontal direction)×0.5; and the data from five heads in each group were averaged. The hamsters with cerebella A used in this experiment are known to reduce cell density of Purkinje's cells and granular cells. Cerebellar slices, which had been cut out in sagittal direction, were stained with hematoxylin-eosin stain, and microscopically observed to count the total number of Purkinje's cells within a Purkinje's cell layer ([…] I to X) and the number of granular cells per unit area, and to confirm subjects in which demyelination was observed within their cerebellar white matters. The results are in Table 5 in parallel.

[4] = system: hamsters with cerebellar ataxia; experiment: Concentration of glutamic acid in cerebrospinal fluid (CSF); type: in vivo, hamster; settings: 10-weeks of age
Excerpt: as §1
The content of glutamic acid, which is used for synthesizing gamma-amino butyric acid (GABA) as a main excitatory neurotransmitter and inhibitory neurotransmitter that regulate higher-order functions such as memory/learning in mammalian central nervous system, was assayed. In harvesting the brains from the above hamsters, they were blooded from their postcavas, followed by collecting CSF for use in the later described assay for glutamic acid concentration. […]

[5] = system: PC12-HS cells
Experimental: The cells were cultured with a serum-free medium as a nutrition-starvation-condition. PC12-HS cells were subjected to tests after stock cultured cells thereof were thawed and cultured with a D-MEM medium supplemented with 10% by volume of fetal bovine serum (FBS). […] As a control, cells were cultured with a NK-4 free D-MEM medium and, similarly as above, cultured after the addition of an ALAMAR BLUE solution commercialized by Trek Diagnostic Systems Inc., Ohio, USA, and measured for fluorescent intensity for each well. Relative values for cells in each well were determined when the fluorescent intensity for control was regarded as 100%, and the data are also shown in Table 1 as survival percentages (%) of cells in each well.

[6] = system: APP Tg mouse; experiment: Novelty object recognition test, APP transgenic mouse; settings: for Index for object discrimination: intraperitoneal, five times a week for 12 weeks
[7] = i.p. five times a week for 12 weeks

CCN1C=CC(=CC=C(C=Cc2cc[n+](CC)c3ccccc23)c2cc[n+](CC)c3ccccc23)c2ccccc21.[I-].[I-] [NK-4]
Survibal percentage of cells when admixed with cytotoxic factor (%) Hydrogen peroxide ([1]; NK-4 50 ng/ml): 50%
Survibal percentage of cells when admixed with cytotoxic factor (%) Hydrogen peroxide ([1]; NK-4 500 ng/ml): 50%
Survibal percentage of cells when admixed with cytotoxic factor (%) Hydrogen peroxide ([1]; NK-4 5000 ng/ml): 70 ** %
Survibal percentage of cells when admixed with cytotoxic factor (%) Hydrogen peroxide ([1]; NK-4 50000 ng/ml): 90 ** %
concentration required for protection action against hydrogen peroxide injury ([1]; PC12-HS cells): 5,000 ng/ml
Survibal percentage of cells when admixed with cytotoxic factor (%) Hydrogen peroxide ([1]; PC12-HS cells, 200 μM hydrogen peroxide, 2 hours, NK-4 5 ng/ml): 51%
Percentage of appoptosis-induced cells (%) Amyloid β fragment [2]: 13 ** %
Cerebellar volume (mm^3) ([3]; 20 μg/kg body weight): 76.0 ± 8.2* mm^3
Number of Purkinje cells (cells) ([3]; 20 μg/kg body weight): 187 ± 37 cells
Number of granular cells (cells/20000 μm^2) ([3]; 20 μg/kg body weight): 408 ± 8 cells/20000 μm^2
Cerebellar volume (mm^3) ([3]; 100 μg/kg body weight): 77.0 ± 2.8* mm^3
Number of Purkinje cells (cells) ([3]; 100 μg/kg body weight): 252 ± 29 cells
Number of granular cells (cells/20000 μm^2) ([3]; 100 μg/kg body weight): 419 ± 6 cells/20000 μm^2
Cerebellar volume (mm^3) ([3]; 500 μg/kg body weight): 80.5 ± 10.8* mm^3
Number of Purkinje cells (cells) ([3]; 500 μg/kg body weight): 231 ± 41 cells
Number of granular cells (cells/20000 μm^2) ([3]; 500 μg/kg body weight): 436 ± 7 cells/20000 μm^2
Number of subject (head) with apparent demyelination in cerebellar white matter ([3]; 20 μg/kg body weight): 4 head
Number of subject (head) with apparent demyelination in cerebellar white matter ([3]; 100 μg/kg body weight): 1 head
Number of subject (head) with apparent demyelination in cerebellar white matter ([3]; 500 μg/kg body weight): 0 head
Concentration of glutamic acid in cerebrospinal fluid ([4]; 20 μg/kg body weight): 7.2 ± 0.8 µM
Concentration of glutamic acid in cerebrospinal fluid ([4]; 100 μg/kg body weight): 8.7 ± 2.6 µM
Concentration of glutamic acid in cerebrospinal fluid ([4]; 500 μg/kg body weight): 9.5 ± 2.9 µM
Survibal percentage of cells when admixed with cytotoxic factor (%) Nutrition starvation ([5]; NK-4 500 ng/ml): 78 ** %
Survibal percentage of cells when admixed with cytotoxic factor (%) Nutrition starvation ([5]; NK-4 5000 ng/ml): 64 ** %
concentration required for protection action against nutrition starvation ([5]; PC12-HS cells): 500 ng/mL
Survibal percentage of cells when admixed with cytotoxic factor (%) Nutrition starvation ([5]; PC12-HS cells, FBS-free medium, 3 days, NK-4 50 ng/ml, control free of cytotoxic factor = 100): 47%
Index for object discrimination ([6]; dose 100 μg/kg body weight): 0.20 ± 0.06
Index for object discrimination ([6]; dose 500 μg/kg body weight): 0.30 ± 0.05
adverse effect [6, 7]: No adverse effect
object discrimination test (in words) [6, 7]: improved the dementia
